Tests used:
SLCO1B1 = target: T1, SLCO1B1 (Homo sapiens, UniProt Q9Y6L6); conditions: HEK293-SLCO1B1 vs HEK293, 10 µM
T1 sequence (Q9Y6L6 1-691): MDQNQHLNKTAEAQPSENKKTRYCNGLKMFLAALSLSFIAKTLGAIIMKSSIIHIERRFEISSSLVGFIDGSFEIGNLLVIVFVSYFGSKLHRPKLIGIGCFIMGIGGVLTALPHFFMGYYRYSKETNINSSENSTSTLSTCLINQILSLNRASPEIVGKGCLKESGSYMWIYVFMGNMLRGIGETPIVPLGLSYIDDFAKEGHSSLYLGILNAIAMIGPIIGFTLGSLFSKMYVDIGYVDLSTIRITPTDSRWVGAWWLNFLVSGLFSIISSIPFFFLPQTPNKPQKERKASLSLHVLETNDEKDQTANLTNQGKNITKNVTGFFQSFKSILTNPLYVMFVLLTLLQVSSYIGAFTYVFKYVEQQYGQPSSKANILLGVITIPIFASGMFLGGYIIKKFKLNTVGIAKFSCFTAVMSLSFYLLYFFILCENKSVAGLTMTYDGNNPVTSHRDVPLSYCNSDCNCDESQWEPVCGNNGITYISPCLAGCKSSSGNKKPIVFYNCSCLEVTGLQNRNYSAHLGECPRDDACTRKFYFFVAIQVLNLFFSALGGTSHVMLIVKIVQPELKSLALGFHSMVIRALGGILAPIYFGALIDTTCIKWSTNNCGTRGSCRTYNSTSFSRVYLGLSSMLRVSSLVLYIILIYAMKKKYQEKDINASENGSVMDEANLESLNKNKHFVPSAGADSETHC

[1] = Cytotoxicity (MTT) assay, Caco-2 cells; type: cell-based; conditions: human, 1–500 µM, read-out: viability compared to the control
Description: (§1) Caco-2 and HEK93 cells were incubated in a 96-well microplate (10^4 cells per well) with different concentrations (1, 10, 50, 100, and 500 µM) of EMHPS for 24 h. At the end of incubation, 20 μL of 0.5% 3-(4,5-dimethylthiazol-2-yl)-2,5-diphenyltetrazolium bromide (MTT) was added to each well, followed by a 2 h incubation. The MTT solution was then aspirated and 200 μL of […] dimethyl sulfoxide solution (PanEko) was added. Absorption was recorded after 10 min at 530 nm with a Stat Fax 2100 plate reader (Awareness Technology, Palm City, FL, USA). The survival of cells in the presence of EMHPS was calculated according to the equation: (optical density (OD) of test wells − OD of medium)/(OD of control wells − OD of medium) × 100%, where OD is the optical density.

ABCB1 = ABCB1 (Homo sapiens, UniProt P08183); test: Effect on ABCB1-mediated transport of fexofenadine through the Caco-2 cells monolayer
Description: Transport experiments were carried out in Transwell® systems (12 mm Transwell® with 0.4 µm Pore Polycarbonate Membrane Insert, Sterile, «Corning»). The Transwell® system consists of two chambers, apical and basolateral. […] The medium was changed every 2–3 days. The apical and basolateral chambers represent the luminal and blood/mesenteric lymph sides of the gastrointestinal tract, respectively.
The transepithelial electrical resistance (TEER) across the cell monolayers was monitored using a Millicell-ERS (electrical resistance system) to assess cell monolayer integrity. For transport studies, only monolayers with a TEER > 500 Ω cm^2 were used.
To study the roles of different parts of the EMHPS molecule for its action on ABCB1, experiments with succinic acid were also carried out.
Prior to the transport experiments, the culture media was aspirated, and the monolayers were washed twice with transport medium and preincubated with EMHPS, succinic acid, or verapamil for 30 min.
The data are presented as the mean ± SD from three monolayers.
The resulting sample of the transport medium (50 μL) was diluted in 150 μL of the mobile phase, and 100 μL of the resulting solution was injected into the chromatograph. A Phenomenex Synergi 4u Polar-RP 80A (250 × 4.6) chromatographic column was used for analysis. The separation temperature was 35 °C; the flow rate was 1 mL/min. Composition of the mobile phase: acetonitrile (128 mL), deionized water (267.4 mL), acetic acid (6.33 mL), triethylamine to pH = 6.7. […] Detection was carried out at a wavelength of 220 nm.
Half maximal inhibitory concentration (IC50) values were determined through nonlinear regression based on the three-parameter logistic function.

CYP3A4 isoenzyme = system: CYP3A4 isoenzyme; design: method as in PMID 21254598; conditions: cited from earlier work
[2] = Cytotoxicity (MTT) assay, HEK293 cells; type: cell-based; conditions: human, 1–500 µM, read-out: viability compared to the control
Description: as §1

[3] = human, Caco-2 cell monolayer on Transwell inserts, probe fexofenadine 150 µmol/L

Chain of ABCB1 (P08183 whole entry): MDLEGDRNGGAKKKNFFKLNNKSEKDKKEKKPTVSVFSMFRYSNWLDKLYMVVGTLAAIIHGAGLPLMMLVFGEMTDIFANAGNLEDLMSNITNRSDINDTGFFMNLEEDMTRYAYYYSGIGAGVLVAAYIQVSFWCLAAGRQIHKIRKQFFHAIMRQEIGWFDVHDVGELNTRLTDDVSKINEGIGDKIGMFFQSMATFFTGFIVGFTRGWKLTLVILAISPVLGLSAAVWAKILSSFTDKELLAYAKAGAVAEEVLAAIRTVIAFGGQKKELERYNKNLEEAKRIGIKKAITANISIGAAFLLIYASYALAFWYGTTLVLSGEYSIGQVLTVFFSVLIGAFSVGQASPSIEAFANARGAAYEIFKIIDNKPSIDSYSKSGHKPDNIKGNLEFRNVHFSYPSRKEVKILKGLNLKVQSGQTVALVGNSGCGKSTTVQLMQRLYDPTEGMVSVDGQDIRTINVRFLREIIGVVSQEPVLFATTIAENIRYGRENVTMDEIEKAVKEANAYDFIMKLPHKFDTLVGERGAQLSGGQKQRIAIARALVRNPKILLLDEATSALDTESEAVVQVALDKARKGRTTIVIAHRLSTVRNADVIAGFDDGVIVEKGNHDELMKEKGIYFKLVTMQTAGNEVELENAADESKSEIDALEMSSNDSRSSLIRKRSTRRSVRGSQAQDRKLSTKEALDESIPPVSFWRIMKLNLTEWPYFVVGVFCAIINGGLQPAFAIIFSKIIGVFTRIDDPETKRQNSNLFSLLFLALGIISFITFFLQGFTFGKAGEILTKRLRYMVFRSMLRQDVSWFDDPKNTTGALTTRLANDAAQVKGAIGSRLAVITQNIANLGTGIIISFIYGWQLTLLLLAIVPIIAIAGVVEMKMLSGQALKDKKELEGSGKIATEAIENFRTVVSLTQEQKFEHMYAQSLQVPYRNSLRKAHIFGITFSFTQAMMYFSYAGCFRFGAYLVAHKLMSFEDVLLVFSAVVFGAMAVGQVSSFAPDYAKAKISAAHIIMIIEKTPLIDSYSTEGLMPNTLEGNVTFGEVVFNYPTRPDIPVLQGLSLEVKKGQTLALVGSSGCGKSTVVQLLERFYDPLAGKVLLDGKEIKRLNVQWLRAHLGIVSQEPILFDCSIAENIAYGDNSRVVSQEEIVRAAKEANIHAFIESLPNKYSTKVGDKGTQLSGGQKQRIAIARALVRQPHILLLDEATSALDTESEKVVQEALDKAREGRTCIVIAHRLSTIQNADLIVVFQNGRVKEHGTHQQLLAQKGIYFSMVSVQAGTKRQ

SMILES: CCc1nc(C)ccc1O.O=C(O)CCC(=O)O [EMHPS, 2-Ethyl-6-methyl-3-hydroxypyridine succinate]
- substrate of SLCO1B1 (SLCO1B1): not a substrate of SLCO1B1
- viability at 24 h [1]: 85 to 105%
- IC50 (ABCB1): 92 ± 24.3 µM
- decrease of basal-to-apical fexofenadine transport (ABCB1; 200 µM, vs control, Caco-2 monolayer): 52.5%
- inhibition at 50 µM (ABCB1; [3]): 50.2%
- inhibition at 100 µM (ABCB1; [3]): 72.9%
- inhibition at 200 µM (ABCB1; [3]): 90.6%
- effect on CYP3A4 isoenzyme (CYP3A4 isoenzyme): inducer
- viability at 24 h [2]: 85 to 105%

From article PMC10674565 (Pharmaceuticals, 2023)
